Measured values from the supplement of paper PMC10307832.

Tests used:
Assay in all cases: relative viability (nuclei count vs DMSO), 5 days (fraction); higher = more cells survive
JZL-184 + Palbociclib = compound: C1CN(CCC1C(C2=CC3=C(C=C2)OCO3)(C4=CC5=C(C=C4)OCO5)O)C(=O)OC6=CC=C(C=C6)[N+](=O)[O-] [JZL-184] + CC(=O)c1c(C)c2cnc(Nc3ccc(N4CCNCC4)cn3)nc2n(C2CCCC2)c1=O [Palbociclib] (partner 0.5 µM)
Method in brief: (§1)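 Relative viability is defined as nuclei in treated wells over nuclei in vehicle wells. Duplicate plates were run and medians reported. Lung cancer cell lines in 1536-well plates were dosed by pin tool one day after seeding, with one drug or with a fixed anchor-drug dose plus five library-drug doses (not always all listed) in √10 steps, and nuclei were counted after 5 days.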

JZL-184 + Pictilisib = compound: C1CN(CCC1C(C2=CC3=C(C=C2)OCO3)(C4=CC5=C(C=C4)OCO5)O)C(=O)OC6=CC=C(C=C6)[N+](=O)[O-] [JZL-184] + CS(=O)(=O)N1CCN(Cc2cc3nc(-c4cccc5[nH]ncc45)nc(N4CCOCC4)c3s2)CC1 [Pictilisib] (partner 1 µM)
Method in brief: as §1

JZL-184 + Pemetrexed = compound: C1CN(CCC1C(C2=CC3=C(C=C2)OCO3)(C4=CC5=C(C=C4)OCO5)O)C(=O)OC6=CC=C(C=C6)[N+](=O)[O-] [JZL-184] + Nc1nc2[nH]cc(CCc3ccc(C(=O)N[C@@H](CCC(=O)O)C(=O)O)cc3)c2c(=O)[nH]1 [Pemetrexed] (partner 0.2 µM)
Method in brief: as §1

JZL-184 + Lapatinib = compound: C1CN(CCC1C(C2=CC3=C(C=C2)OCO3)(C4=CC5=C(C=C4)OCO5)O)C(=O)OC6=CC=C(C=C6)[N+](=O)[O-] [JZL-184] + CS(=O)(=O)CCNCc1ccc(-c2ccc3ncnc(Nc4ccc(OCc5cccc(F)c5)c(Cl)c4)c3c2)o1 [Lapatinib] (partner 2 µM)
Method in brief: as §1

JZL-184 + Bortezomib = compound: C1CN(CCC1C(C2=CC3=C(C=C2)OCO3)(C4=CC5=C(C=C4)OCO5)O)C(=O)OC6=CC=C(C=C6)[N+](=O)[O-] [JZL-184] + CC(C)C[C@H](NC(=O)[C@H](Cc1ccccc1)NC(=O)c1cnccn1)B(O)O [Bortezomib] (partner 0.002 µM)
Method in brief: as §1

Row | Cell Line | relative viability (JZL-184 + Palbociclib; first compound 0.04 µM) | relative viability (JZL-184 + Palbociclib; first compound 0.4 µM) | relative viability (JZL-184 + Palbociclib; first compound 1.265 µM) | relative viability (JZL-184 + Palbociclib; first compound 4 µM) | relative viability (JZL-184 + Pictilisib; first compound 0.04 µM) | relative viability (JZL-184 + Pictilisib; first compound 0.4 µM) | relative viability (JZL-184 + Pictilisib; first compound 1.265 µM) | relative viability (JZL-184 + Pictilisib; first compound 4 µM) | relative viability (JZL-184 + Pemetrexed; first compound 0.04 µM) | relative viability (JZL-184 + Pemetrexed; first compound 0.4 µM) | relative viability (JZL-184 + Pemetrexed; first compound 1.265 µM) | relative viability (JZL-184 + Pemetrexed; first compound 4 µM) | relative viability (JZL-184 + Lapatinib; first compound 0.04 µM) | relative viability (JZL-184 + Lapatinib; first compound 0.4 µM) | relative viability (JZL-184 + Lapatinib; first compound 1.265 µM) | relative viability (JZL-184 + Lapatinib; first compound 4 µM) | relative viability (JZL-184 + Bortezomib; first compound 0.04 µM) | relative viability (JZL-184 + Bortezomib; first compound 0.4 µM) | relative viability (JZL-184 + Bortezomib; first compound 1.265 µM) | relative viability (JZL-184 + Bortezomib; first compound 4 µM)
1 | LC-2-ad | 0.579 | 0.504 | 0.488 | 0.484 | 0.546 | 0.388 | 0.658 | 0.461 | 0.293 | 0.278 | 0.279 | 0.265 | 1.19 | 0.889 | 1.05 | 0.952 | 1.16 | 0.868 | 0.99 | 0.942
2 | LCLC-97TM1 | 0.283 | 0.195 | 0.255 | 0.274 | 0.259 |  | 0.237 | 0.201 | 0.166 | 0.17 | 0.13 | 0.201 | 1.08 |  | 1.01 | 0.858 | 0.612 | 0.624 | 0.804 | 0.573
3 | LOU-NH91 | 0.524 | 0.509 | 0.558 | 0.448 | 0.535 | 0.471 | 0.514 | 0.532 | 0.389 | 0.334 | 0.381 | 0.394 | 0.783 | 0.741 | 0.845 | 0.727 | 0.51 | 0.419 | 0.511 | 0.471
4 | LU99A | 0.455 | 0.36 | 0.471 | 0.42 | 0.353 | 0.315 | 0.329 | 0.313 | 0.162 | 0.12 | 0.159 | 0.124 | 1.21 | 0.966 | 1.22 | 0.963 | 1.29 | 1.09 | 1.32 | 1.22
5 | LXF-289 | 0.693 | 0.564 | 0.572 | 0.595 | 0.865 | 0.71 | 0.842 | 0.779 | 0.882 | 0.779 | 0.862 | 0.875 | 0.92 | 0.866 | 0.924 | 0.852 | 1.01 | 0.953 | 1.04 | 0.933
6 | NCI-H23 | 0.594 |  | 0.484 | 0.486 | 0.561 | 0.432 | 0.538 | 0.492 | 0.772 |  | 0.704 | 0.597 | 1.39 | 0.969 | 1.26 | 1.07 | 1.24 | 0.765 | 1.21 | 1.07
7 | NCI-H322M | 0.483 | 0.449 | 0.509 | 0.451 | 0.494 | 0.472 | 0.554 | 0.495 | 0.591 | 0.604 | 0.615 | 0.538 | 0.654 | 0.599 | 0.562 | 0.578 | 1.15 | 1.16 | 1.27 | 1.27
8 | NCI-H460 | 0.147 | 0.0967 | 0.149 | 0.201 | 0.385 | 0.332 | 0.404 | 0.374 | 0.0624 | 0.0591 | 0.0649 | 0.0648 | 1.86 | 0.894 | 1.09 | 0.881 | 1.83 | 1.05 | 1.05 | 1.11
9 | NCI-H520 | 0.189 | 0.221 | 0.223 | 0.219 | 0.351 | 0.221 | 0.311 | 0.245 | 0.782 | 0.483 | 0.748 | 0.684 | 0.79 | 0.76 | 0.856 | 0.631 | 0.648 | 0.479 | 0.582 | 0.531
10 | NCI-H647 | 0.369 | 0.285 | 0.407 | 0.359 | 0.495 | 0.294 | 0.566 | 0.468 | 0.201 | 0.161 | 0.209 | 0.19 | 1.35 | 0.969 | 1.28 | 1.14 | 1.32 | 0.922 | 1.14 | 0.974
11 | NCI-H650 | 0.358 | 0.292 | 0.321 | 0.317 | 1.08 | 0.857 | 0.884 | 0.876 | 0.894 | 0.924 | 1.04 | 1.01 | 0.916 | 0.793 | 1.07 | 0.894 | 0.912 | 0.801 | 1.04 | 0.738
12 | NCI-H661 | 0.408 | 0.378 | 0.399 | 0.403 | 0.372 |  | 0.455 | 0.452 | 0.983 | 0.858 | 0.931 | 0.898 | 0.505 | 0.481 | 0.637 | 0.382 | 0.763 | 0.803 | 0.796 | 0.889
13 | NCI-H838 | 0.22 | 0.259 | 0.235 | 0.199 | 0.53 | 0.449 | 0.499 | 0.482 | 0.254 | 0.236 | 0.241 | 0.256 | 1.19 | 1.04 | 1.16 | 0.94 | 1.13 | 0.828 | 0.819 | 0.636
14 | NCI-H1355 | 0.376 | 0.381 | 0.423 | 0.4 | 0.431 | 0.357 | 0.555 | 0.396 | 1.06 | 0.945 | 1.05 | 1.04 | 0.974 | 0.921 | 1.02 | 0.943 | 1.28 | 1.18 | 1.18 | 1.18
15 | NCI-H1437 | 0.333 | 0.321 | 0.297 | 0.282 | 0.466 | 0.408 | 0.366 | 0.468 | 0.306 | 0.322 | 0.309 | 0.312 | 0.984 | 0.717 | 0.773 | 0.759 | 0.594 | 0.512 | 0.479 | 0.373
